Test results published in US20230106523A1, “QUERCETIN ENHANCEMENT FORMULATION” (SMARTDNA PTY LTD, priority 2020, published 2023).
Values joined by “and” are separate entries in the source; they are usually repeats but may differ in a detail not shown here. Identical values can stand only once.

Assays:
[1] = cited from earlier work
[2] = Rat study: serum quercetin concentration after oral gavage; type: in vivo, Sprague-Dawley rats; conditions: for concentration of quercetin in the serum from individual rats: one column per rat
Experimental: Rats were administered: • (a) Quercetin • (b) American Ruby Red grapefruit extract • (c) Quercetin and American Ruby Red grapefruit extract • (d) grapefruit extract • (e) grapefruit extract and quercetin
5 groups of 8 male Sprague-Dawley rats, aged approximately 14 weeks, weighing 350-400 gm were used in the study. The rats were bred at Hercus-Taeri Resource Unity. All of the rats were healthy and had no medication history.
1. The quercetin was dissolved in distilled water at 12.0 mg/ml immediately prior to administration.
2. American Ruby Red grapefruit was cut in half and juice obtained by manual squeezing.
The grapefruit extract used was a commercially obtained grapefruit juice.
3. A known volume of each of the grapefruit juices was lyophilized. Once dry, the residue was resuspended in distilled water to 25% of its original volume. This reduced the volume to be gavaged to each rat in the relevant groups to make the quantities of active agents administered as high as practical.
4. The quercetin/grapefruit juice formulations were prepared by dissolving the quercetin in the concentrated juices at 12.0 mg/ml.
GROUP 1. Each animal in this group received quercetin at 15 mg per kg body weight administered by oral gavage.
GROUP 2. Each animal in this group received the concentrated New Zealand grapefruit juice (American Ruby Red) at 2.5 ml per kg body weight administered by oral gavage.
GROUP 3. Each animal in this group received quercetin dissolved in the concentrated New
Zealand grapefruit juice (American Ruby Red) administered by oral gavage. The juice was administered so as to provide 15 mg quercetin per kg body weight.
GROUP 4. Each animal in this group received the concentrated grapefruit juice (prepared by Cedenco Ltd) at 2.5 ml per kg body weight administered by oral gavage.
GROUP 5. Each animal in this group received quercetin dissolved in the concentrated grapefruit juice (prepared by Cedenco Ltd) at 2.5 ml per kg body weight administered by oral gavage. The quercetin was dissolved so that it was administered at 15 mg per kg body weight.
1. A 0.5 ml time zero blood sample was taken from each animal from the lateral saphenous vein. The animals were anaesthetized using Halothane in oxygen (3.5% for knockdown, 2.5 to 3.0% for maintenance). The vein was cannulated. The zero-time blood sample was taken from each group of rats the day before the animals were gavaged. Following the collection of the blood sample, a 0.5 ml aliquot of sterile normal saline was given by intraperitoneal (IP) injection.
2. The test sample was prepared freshly immediately prior to the gavaging of each group of rats. Each animal was weighed and the volume of the test sample to be administered calculated.
3. Each rat was gavaged using proprietary gavaging needles (Popper). Once gavaging was complete the animals were left for 10 minutes before being anaesthetized using Halothane in oxygen (3.5% for knockdown, 2.5 to 3.0% for maintenance).
4. […] After each collection an equal volume of sterile saline was administered to each animal via an IP injection. The blood samples were immediately transferred to serum separating microtainer tubes (Becton Dickinson Cat. No 365956) and left to clot for 30 minutes at room temperature. The tubes were centrifuged at 3000 rpm for 10 minutes in a Beckman J6 centrifuge with a swing-out rotor. The sera were pipetted off and transferred into Eppendorf tubes/cryovials which were stored at −80° C.
The sera samples were sent to the Institute of Environmental Science and Research (ESR) (Kenepuru, Wellington, New Zealand) for quantitation of the concentration of quercetin in each. The detection limit for quercetin in serum was 5 ng/ml.

[3] = Human trial: blood serum levels of quercetin after ingestion, HPLC-UV; type: in vivo; conditions: human subject, 80 mg quercetin oral
Experimental: The concentration of quercetin in the blood of a human subject was measured over four hours following ingestion of: • (a) 80 mg quercetin and 200 ml filtered water, • (b) 80 mg quercetin and 200 ml grapefruit extract.
The grapefruit extract consisted of grapefruit juice that was squeezed from the grapefruit with a juicer. The collected juice was freeze-dried and redissolved as a concentrate (4 times) using water for solubilising.
The total amount of 6,7-DHB administered in the grapefruit extract in (b) above was estimated to be about 5.9 mg.
In both experiments, the quercetin was administered as a powder washed down with filtered water.
For the quercetin and grapefruit extract test, the grapefruit extract was taken two hours before the quercetin.
Serum samples were taken from the subject at 15 minute intervals. The samples were extracted into ethyl acetate and the concentration of quercetin determined using HPLC with UV detection at 315 nm. Carbamazepine was used as an internal standard.
A linear relationship for the standard curve was achieved over the range of quercetin standards of 2-150 ng/mL (using weighted linear retgression 1/x^2).
The lower limit of quantification (LLOQ) for the method was determined to be 2 ng/mL (using FDA guidelines for bio-analytical procedures) and the limit of detection was estimated to be 1 ng/mL.

[4] = cited from earlier work; remark: listed apart in the source

O=c1c(O)c(-c2ccc(O)c(O)c2)oc2cc(O)cc(O)c12 [Quercetin, 2-(3,4-dihydroxyphenyl)-3,5,7-trihydroxy-4H-chromen-4-one]
water solubility [1]: low
concentration of quercetin in the serum from individual rats ([2]; 0 min (sample taken the day before gavage)): 0
concentration of quercetin in the serum from individual rats ([2]; 30 min after oral gavage, quercetin 15 mg/kg and/or concentrated juice 2.5 ml/kg): 0
rats (of eight) showing quercetin in the serum ([2]; 30 minutes after administration): none was detected in any of the animals
concentration of quercetin in the serum from individual rats ([2]; 60 min after oral gavage, quercetin 15 mg/kg and/or concentrated juice 2.5 ml/kg, listed as Quercetin alone): 0 (7×) and 2
concentration of quercetin in the serum from individual rats ([2]; 90 min after oral gavage, quercetin 15 mg/kg and/or concentrated juice 2.5 ml/kg, listed as Quercetin alone): 0 (7×) and 2
concentration of quercetin in the serum from individual rats ([2]; 120 min after oral gavage, quercetin 15 mg/kg and/or concentrated juice 2.5 ml/kg, listed as Quercetin alone): 0 (7×) and 2
concentration at 0 min ([3]; time 0 min): 0 ng/mL
concentration at 15 min ([3]; time 15 min): 1 ng/mL
concentration at 30 min ([3]; time 30 min): 2.3 ng/mL
concentration at 45 min ([3]; time 45 min): 3.8 ng/mL
concentration at 60 min ([3]; time 60 min): 3.1 ng/mL
concentration at 75 min ([3]; time 75 min): 1 ng/mL
concentration at 90 min ([3]; time 90 min): 0 ng/mL
concentration at 105 min ([3]; time 105 min): 0 ng/mL
concentration at 120 min ([3]; time 120 min): 0 ng/mL
concentration at 135 min ([3]; time 135 min): 0 ng/mL
concentration at 150 min ([3]; time 150 min): 0 ng/mL
concentration at 165 min ([3]; time 165 min): 0 ng/mL
concentration at 180 min ([3]; time 180 min): 0 ng/mL
concentration at 195 min ([3]; time 195 min): 0 ng/mL
concentration at 210 min ([3]; time 210 min): 0 ng/mL
concentration at 225 min ([3]; time 225 min): 0 ng/mL
concentration at 240 min ([3]; time 240 min): 0 ng/mL
bioavailability of active quercetin (duration) ([4]; human studies (Graefe 1999)): no more than 10 minutes
elimination half-life ([4]; humans, after ingesting quercetin foods or supplements): 1 to 2 h
bioavailability of quercetin in humans ([4]; humans): 0-50%
